Reference: BindingDB's records for patent US20250011332 (Soter Biopharma, 2025)

Legend:
[1] = biological target: T1, Tyrosine-protein kinase JAK3 (Homo sapiens, UniProt P52333); assay: Jak3 Kinase Activity Test In Vitro
T1 sequence (P52333 whole entry): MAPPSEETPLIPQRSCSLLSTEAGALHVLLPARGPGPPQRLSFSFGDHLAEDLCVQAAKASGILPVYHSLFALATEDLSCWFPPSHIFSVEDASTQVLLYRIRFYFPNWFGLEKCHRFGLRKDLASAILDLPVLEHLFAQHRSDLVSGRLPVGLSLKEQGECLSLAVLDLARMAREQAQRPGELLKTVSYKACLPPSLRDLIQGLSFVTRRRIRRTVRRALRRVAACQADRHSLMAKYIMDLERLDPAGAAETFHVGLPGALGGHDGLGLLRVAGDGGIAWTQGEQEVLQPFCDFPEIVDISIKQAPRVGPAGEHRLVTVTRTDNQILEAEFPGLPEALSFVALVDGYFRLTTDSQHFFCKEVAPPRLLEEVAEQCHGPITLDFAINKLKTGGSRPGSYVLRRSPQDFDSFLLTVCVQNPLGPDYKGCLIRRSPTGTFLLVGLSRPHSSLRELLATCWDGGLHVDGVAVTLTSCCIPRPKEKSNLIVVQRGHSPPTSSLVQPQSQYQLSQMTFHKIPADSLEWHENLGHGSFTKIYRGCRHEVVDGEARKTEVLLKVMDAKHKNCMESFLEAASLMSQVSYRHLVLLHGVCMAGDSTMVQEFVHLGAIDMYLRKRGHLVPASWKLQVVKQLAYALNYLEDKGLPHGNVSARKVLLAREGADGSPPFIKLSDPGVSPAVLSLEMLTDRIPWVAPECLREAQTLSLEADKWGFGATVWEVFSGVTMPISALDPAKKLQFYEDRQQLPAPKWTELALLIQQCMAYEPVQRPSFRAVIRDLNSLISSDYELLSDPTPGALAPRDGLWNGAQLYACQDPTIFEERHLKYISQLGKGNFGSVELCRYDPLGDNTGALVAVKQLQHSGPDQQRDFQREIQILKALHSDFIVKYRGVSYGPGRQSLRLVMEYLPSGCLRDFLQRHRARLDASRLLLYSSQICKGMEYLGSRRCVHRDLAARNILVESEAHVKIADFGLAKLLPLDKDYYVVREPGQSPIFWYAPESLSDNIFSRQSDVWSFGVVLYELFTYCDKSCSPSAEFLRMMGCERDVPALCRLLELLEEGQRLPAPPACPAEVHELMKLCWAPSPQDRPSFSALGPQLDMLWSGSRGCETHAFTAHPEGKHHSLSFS
Method: (§1) JAK3(h) was incubated with 8 mM MOPS pH 7.0, 0.2 mM EDTA, 500 μM GGEEEEYFELVKKKK (SEQ ID NO: 3), 10 mM magnesium acetate, and [γ-33P]-ATP (activity and concentration were determined as required). The reaction was started by adding the Mg/ATP mixture, and after incubation at room temperature for 40 min, the reaction was terminated by adding 0.5% phosphoric acid. Then 10 μL of the reaction product was spotted on a P30 filter pad which was washed three times with 0.425% phosphoric acid and once with methanol within 4 min, dried, and subjected to scintillation counting.

[2] = biological target: Non-receptor tyrosine-protein kinase TYK2 (Homo sapiens, UniProt P29597); assay: TYK2 Kinase Activity Test In Vitro
Sequence of Non-receptor tyrosine-protein kinase TYK2 (P29597 whole entry): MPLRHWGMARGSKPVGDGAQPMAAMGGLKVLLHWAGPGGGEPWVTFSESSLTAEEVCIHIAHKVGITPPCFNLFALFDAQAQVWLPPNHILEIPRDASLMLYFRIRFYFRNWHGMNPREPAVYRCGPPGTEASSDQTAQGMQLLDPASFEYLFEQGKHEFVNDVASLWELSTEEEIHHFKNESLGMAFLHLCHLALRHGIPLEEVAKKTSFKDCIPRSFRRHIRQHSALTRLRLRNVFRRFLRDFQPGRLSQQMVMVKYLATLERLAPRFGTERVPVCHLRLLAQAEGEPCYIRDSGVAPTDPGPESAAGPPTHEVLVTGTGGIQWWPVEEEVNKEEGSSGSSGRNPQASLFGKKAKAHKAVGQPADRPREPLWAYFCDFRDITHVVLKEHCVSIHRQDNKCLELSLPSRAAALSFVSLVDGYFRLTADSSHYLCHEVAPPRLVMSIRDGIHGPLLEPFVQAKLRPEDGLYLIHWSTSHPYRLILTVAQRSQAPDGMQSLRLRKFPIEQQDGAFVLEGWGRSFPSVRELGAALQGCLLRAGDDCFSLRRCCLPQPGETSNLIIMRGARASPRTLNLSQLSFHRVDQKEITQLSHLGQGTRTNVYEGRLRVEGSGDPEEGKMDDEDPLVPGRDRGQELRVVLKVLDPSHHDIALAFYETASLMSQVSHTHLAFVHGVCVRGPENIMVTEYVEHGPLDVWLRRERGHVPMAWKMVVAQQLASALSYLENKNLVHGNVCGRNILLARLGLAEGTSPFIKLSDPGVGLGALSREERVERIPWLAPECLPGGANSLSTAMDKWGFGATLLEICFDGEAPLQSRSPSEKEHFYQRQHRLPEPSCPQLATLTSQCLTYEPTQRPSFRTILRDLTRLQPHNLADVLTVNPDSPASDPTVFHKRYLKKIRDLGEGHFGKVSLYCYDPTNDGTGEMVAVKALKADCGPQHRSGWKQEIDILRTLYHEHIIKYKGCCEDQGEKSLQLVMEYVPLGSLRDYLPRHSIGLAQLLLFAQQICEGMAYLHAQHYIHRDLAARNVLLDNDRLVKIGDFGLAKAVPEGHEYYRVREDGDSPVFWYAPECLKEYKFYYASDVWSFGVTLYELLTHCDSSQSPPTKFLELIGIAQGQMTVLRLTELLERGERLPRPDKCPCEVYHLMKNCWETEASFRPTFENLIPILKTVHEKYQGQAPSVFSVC
Method: as §1, with “TYK2(h)” for “JAK3(h)”, “250” for “500”, “GGMEDIYFEFMGGKKK” for “GGEEEEYFELVKKKK”, “4),” for “3),”

[3] = biological target: Tyrosine-protein kinase JAK1 (Homo sapiens, UniProt P23458); assay: Jak1 Kinase Activity Test In Vitro
Sequence of Tyrosine-protein kinase JAK1 (P23458 whole entry): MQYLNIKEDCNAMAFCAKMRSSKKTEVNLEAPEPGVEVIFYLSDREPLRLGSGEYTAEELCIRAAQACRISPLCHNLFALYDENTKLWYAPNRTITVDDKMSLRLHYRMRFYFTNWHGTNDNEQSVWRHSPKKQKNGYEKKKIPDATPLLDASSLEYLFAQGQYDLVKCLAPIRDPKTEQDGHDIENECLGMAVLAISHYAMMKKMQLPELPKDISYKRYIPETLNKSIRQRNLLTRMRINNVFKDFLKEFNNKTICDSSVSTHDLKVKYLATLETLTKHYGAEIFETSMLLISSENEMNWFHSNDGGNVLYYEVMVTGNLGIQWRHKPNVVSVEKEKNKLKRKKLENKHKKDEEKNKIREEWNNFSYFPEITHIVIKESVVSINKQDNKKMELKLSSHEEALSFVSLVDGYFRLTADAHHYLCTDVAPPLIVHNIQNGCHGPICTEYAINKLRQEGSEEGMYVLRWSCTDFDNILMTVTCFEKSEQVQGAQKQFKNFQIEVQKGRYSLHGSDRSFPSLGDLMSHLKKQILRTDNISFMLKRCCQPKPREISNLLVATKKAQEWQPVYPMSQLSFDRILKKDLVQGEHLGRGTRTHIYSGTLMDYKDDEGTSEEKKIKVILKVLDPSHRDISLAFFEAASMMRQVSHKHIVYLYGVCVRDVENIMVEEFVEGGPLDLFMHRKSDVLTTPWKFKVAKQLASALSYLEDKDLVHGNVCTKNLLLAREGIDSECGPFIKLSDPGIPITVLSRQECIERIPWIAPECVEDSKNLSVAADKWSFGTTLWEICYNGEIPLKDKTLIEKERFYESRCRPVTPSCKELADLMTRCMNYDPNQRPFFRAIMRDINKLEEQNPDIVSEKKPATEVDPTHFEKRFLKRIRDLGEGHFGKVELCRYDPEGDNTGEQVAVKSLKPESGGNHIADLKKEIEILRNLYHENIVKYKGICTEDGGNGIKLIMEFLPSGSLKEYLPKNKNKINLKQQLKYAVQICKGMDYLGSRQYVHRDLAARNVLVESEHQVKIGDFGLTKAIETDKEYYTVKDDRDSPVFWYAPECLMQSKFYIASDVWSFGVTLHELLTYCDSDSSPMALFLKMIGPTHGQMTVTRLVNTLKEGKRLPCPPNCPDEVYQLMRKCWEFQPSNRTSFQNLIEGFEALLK
Method: JAK1(h) was incubated with 20 mM Tris/HCl pH 7.5, 0.2 mM EDTA, 500 μM MGEEPLYWSFPAKKK (SEQ ID NO: 1), 10 mM magnesium acetate and [γ-33P]-ATP (activity and concentration were determined as required). The reaction was started by adding the Mg/ATP mixture, and after incubation at room temperature for 40 min, the reaction was terminated by adding 0.5% phosphoric acid. Then 10 μL of the reaction product was spotted on a P30 filter pad which was washed three times with 0.425% phosphoric acid and once with methanol within 4 min, dried, and subjected to scintillation counting.

[4] = biological target: Tyrosine-protein kinase JAK2 (Homo sapiens, UniProt O60674); assay: Jak2 Kinase Activity Test In Vitro
Sequence of Tyrosine-protein kinase JAK2 (O60674 whole entry): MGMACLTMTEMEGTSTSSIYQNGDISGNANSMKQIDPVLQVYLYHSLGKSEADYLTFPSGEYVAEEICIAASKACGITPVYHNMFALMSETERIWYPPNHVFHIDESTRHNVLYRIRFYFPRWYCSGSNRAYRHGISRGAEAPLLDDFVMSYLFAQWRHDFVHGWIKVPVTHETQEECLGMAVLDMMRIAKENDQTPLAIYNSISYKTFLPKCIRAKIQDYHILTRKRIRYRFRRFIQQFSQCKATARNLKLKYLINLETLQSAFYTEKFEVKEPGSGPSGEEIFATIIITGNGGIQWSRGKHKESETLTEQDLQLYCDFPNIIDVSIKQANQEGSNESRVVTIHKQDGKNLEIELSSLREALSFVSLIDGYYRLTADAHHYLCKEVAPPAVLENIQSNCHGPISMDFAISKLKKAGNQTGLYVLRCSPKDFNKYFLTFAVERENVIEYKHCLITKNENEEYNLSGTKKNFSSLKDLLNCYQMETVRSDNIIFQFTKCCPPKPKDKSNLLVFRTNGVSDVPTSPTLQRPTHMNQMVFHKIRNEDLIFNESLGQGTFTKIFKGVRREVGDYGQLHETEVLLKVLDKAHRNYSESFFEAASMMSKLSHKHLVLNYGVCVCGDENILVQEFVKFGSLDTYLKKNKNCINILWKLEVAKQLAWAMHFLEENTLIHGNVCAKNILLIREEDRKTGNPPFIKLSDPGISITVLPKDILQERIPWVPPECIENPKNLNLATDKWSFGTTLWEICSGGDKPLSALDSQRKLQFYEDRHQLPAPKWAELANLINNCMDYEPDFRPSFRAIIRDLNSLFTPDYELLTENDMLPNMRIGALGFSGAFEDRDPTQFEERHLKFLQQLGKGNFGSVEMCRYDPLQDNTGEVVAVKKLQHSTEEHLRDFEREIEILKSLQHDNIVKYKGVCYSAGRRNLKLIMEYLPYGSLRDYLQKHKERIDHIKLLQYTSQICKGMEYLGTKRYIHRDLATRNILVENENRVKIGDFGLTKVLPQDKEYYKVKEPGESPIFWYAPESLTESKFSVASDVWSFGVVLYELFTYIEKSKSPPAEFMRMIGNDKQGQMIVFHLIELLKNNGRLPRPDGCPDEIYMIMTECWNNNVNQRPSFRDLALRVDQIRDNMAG
Method: as §1, with “JAK2(h)” for “JAK3(h)”, “100” for “500”, “GGEEEEYFELVKKKK” left out, “2),” for “3),”

Row | IC50 [1] [nM] | IC50 [2] [nM] | IC50 [3] [nM] | IC50 [4] [nM] | Compound
1 | 480 | 2 | 123 |  | Cn1cc(-c2cn3nccc3c(-c3cnn([C@]4(CC#N)CC5(C[C@@H](C#N)C5)C4)c3)n2)cn1 (some centres undefined) [US20250011332, Compound 2]
2 |  | 20 |  |  | Cn1cc(-c2cn3nccc3c(-c3cnn([C@]4(CC#N)CC5(C[C@@H](C#N)C5)C4)c3)n2)cn1 (some centres undefined) [US20250011332, Compound 4]
3 | ≥ 10000 | 30 | 281 | 33 | Cn1ccc(-c2cn3nccc3c(-c3cnn(C4(CC#N)CC5(CCN(C#N)C5)C4)c3)n2)n1 (centres undefined) [US20250011332, Compound 10]
4 | 7740 | 6 | 122 | 138 | Cn1ccc(-c2cn3nccc3c(-c3cnn([C@]4(CC#N)CC5(CC[C@@H](C#N)CC5)C4)c3)n2)n1 (some centres undefined) [US20250011332, Compound 12]
5 | 1080 | 10 | 233 | 103 | Cn1ccc(-c2cn3nccc3c(-c3cnn([C@]4(CC#N)CC5(CC[C@@H](C#N)CC5)C4)c3)n2)n1 (some centres undefined) [US20250011332, Compound 13]
6 | > 1000 |  | 229 | 28 | Cn1cc(-c2cc(-c3cnn([C@]4(CC#N)CC5(C[C@H](C#N)C5)C4)c3)c3ccnn3c2)cn1 (some centres undefined) [US20250011332, Compound 17]
7 | 93 |  | 12 | 3 | Cn1ncc(-c2cn3nccc3c(-c3cnn([C@]4(CC#N)CC5(C[C@H](C#N)C5)C4)c3)n2)c1N (some centres undefined) [US20250011332, Compound 18]
8 | 670 | 2 | 42 | 6 | Cn1ncc(-c2cn3nccc3c(-c3cnn([C@]4(CC#N)CC5(C[C@H](C#N)C5)C4)c3)n2)c1N (some centres undefined) [US20250011332, Compound 19]
9 | 480 | 1 | 14 |  | N#CC[C@]1(n2cc(-c3nc(-c4cc(N)[nH]n4)cn4nccc34)cn2)CC2(C[C@@H](C#N)C2)C1 (some centres undefined) [US20250011332, Compound 20]
